Tests used:
Test in all cases: relative viability (nuclei count vs DMSO), 5 days (fraction); higher = more cells survive
[1] = compound: CC1=CC(=C(N1C2=CC=C(C=C2)Cl)C)C(=O)CN3CCCCC3 [IU1-47] + O=C(c1cc(Cc2n[nH]c(=O)c3ccccc23)ccc1F)N1CCN(C(=O)C2CC2)CC1 [Olaparib] (partner 8 µM)
In short: (§1)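 Lung cancer cell lines in 1536-well plates got either a single drug or a fixed anchor-drug dose together with five library-drug doses (not always all listed) in √10 steps, by pin tool, on the day after seeding. Nuclei were counted after 5 days, and relative viability is the treated-to-vehicle ratio of nuclei counts. Values are medians of duplicate plates.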

[2] = compound: Cc1nc(C(=O)NCC(=O)O)c(O)c2ccc(Oc3ccccc3)cc12 [FG-4592] + Cc1cc(Nc2cc(N3CCN(C)CC3)nc(Sc3ccc(NC(=O)C4CC4)cc3)n2)n[nH]1 [Tozasertib] (partner 0.1 µM)
In short: as §1

[3] = compound: Cc1nc(C(=O)NCC(=O)O)c(O)c2ccc(Oc3ccccc3)cc12 [FG-4592] + Nc1ncn([C@H]2C[C@H](O)[C@@H](CO)O2)c(=O)n1 [Decitabine] (partner 2 µM)
In short: as §1

[4] = compound: CC1=CC(=C(N1C2=CC=C(C=C2)Cl)C)C(=O)CN3CCCCC3 [IU1-47] + CS(=O)(=O)CCNCc1ccc(-c2ccc3ncnc(Nc4ccc(OCc5cccc(F)c5)c(Cl)c4)c3c2)o1 [Lapatinib] (partner 2 µM)
In short: as §1

Cell Line	relative viability ([1]; first compound 0.08 µM)	relative viability ([1]; first compound 0.253 µM)	relative viability ([1]; first compound 0.8 µM)	relative viability ([1]; first compound 2.53 µM)	relative viability ([1]; first compound 8 µM)	relative viability ([2]; first compound 0.08 µM)	relative viability ([2]; first compound 0.253 µM)	relative viability ([2]; first compound 0.8 µM)	relative viability ([2]; first compound 2.53 µM)	relative viability ([2]; first compound 8 µM)	relative viability ([3]; first compound 0.08 µM)	relative viability ([3]; first compound 0.253 µM)	relative viability ([3]; first compound 0.8 µM)	relative viability ([3]; first compound 2.53 µM)	relative viability ([3]; first compound 8 µM)	relative viability ([4]; first compound 0.08 µM)	relative viability ([4]; first compound 0.253 µM)	relative viability ([4]; first compound 0.8 µM)	relative viability ([4]; first compound 8 µM)	relative viability ([4]; first compound 2.53 µM)
201T	0.829	0.869	0.854	0.838	0.666	0.856	0.965	1.06	0.998	0.946	0.865	0.839	0.842	0.859	0.878	1.04	1	1.05	0.957	–
A549	0.467	0.28	0.324	–	0.371	–	–	–	–	–	0.276	0.214	0.378	0.281	0.207	0.987	1.1	0.92	0.858	1.08
A-427	0.81	0.811	0.716	0.82	0.711	0.21	0.223	0.201	0.206	0.224	0.535	0.558	0.503	0.558	0.567	1.01	0.994	0.977	0.873	–
ABC-1	1.14	1.05	0.816	–	0.907	0.177	0.178	0.148	0.187	0.149	0.87	1.09	–	0.898	0.957	1.45	1.08	1.06	1.12	0.821
BEN	1.1	1.06	1.12	1.11	0.933	0.564	0.459	0.475	0.676	0.452	0.649	0.651	0.555	0.738	0.607	0.723	0.816	1.09	0.633	0.617
CAL-12T	0.705	0.726	0.747	0.797	0.863	0.335	0.267	0.312	0.293	0.29	–	–	–	–	–	0.683	0.765	0.744	0.763	0.591
COR-L23	0.382	0.389	0.314	0.396	0.405	0.186	0.212	0.217	0.153	0.171	0.422	0.371	0.377	0.393	0.362	1.19	1.12	1.07	0.892	0.92
COR-L 105	0.817	0.78	0.699	0.665	0.745	0.348	0.375	0.359	0.297	0.35	0.649	0.691	0.597	0.621	0.641	0.312	0.405	0.382	0.333	0.328
Calu-6	0.618	0.566	0.586	0.617	0.616	–	–	–	–	–	–	–	–	–	–	1.14	1.23	1.11	0.94	1.18
ChaGo-K-1	0.433	0.393	0.435	0.452	0.362	0.241	0.219	0.224	0.237	0.208	0.508	0.427	0.509	0.493	0.466	–	–	–	–	–
EBC-1	0.685	0.691	0.696	0.663	0.766	–	–	–	–	–	–	–	–	–	–	0.214	0.216	0.218	0.205	0.226
EKVX	0.827	1.06	0.896	–	0.87	0.397	0.403	0.47	0.412	0.387	0.325	0.368	0.287	0.319	0.341	0.214	0.27	0.199	0.219	0.214
EMC-BAC-2	0.507	0.548	0.402	0.534	0.533	0.262	0.277	0.27	0.301	0.286	1.01	0.962	–	1.02	0.942	0.947	0.944	0.966	0.879	0.955
EPLC-272H	0.77	0.867	0.684	0.851	0.92	0.24	0.286	0.204	0.378	0.271	0.417	0.302	0.304	0.368	0.382	1.16	0.925	0.965	0.528	–
H3255	0.64	0.609	0.569	0.54	0.561	0.718	0.626	0.608	0.601	0.642	0.702	0.585	0.6	0.592	0.557	0.242	0.242	0.256	0.246	0.238
HARA	1.02	–	0.703	0.632	0.567	0.12	0.138	0.0931	0.115	0.104	–	–	–	0.676	0.559	0.849	0.817	0.884	0.563	0.694
HCC-15	0.75	0.722	0.767	0.711	0.662	0.333	0.42	0.395	0.391	0.444	0.677	0.585	0.606	0.661	0.765	0.897	0.854	0.999	0.798	0.677

Cell Line	relative viability ([1]; first compound 0.08 µM)	relative viability ([1]; first compound 0.253 µM)	relative viability ([1]; first compound 0.8 µM)	relative viability ([1]; first compound 2.53 µM)	relative viability ([1]; first compound 8 µM)	relative viability ([2]; first compound 0.08 µM)	relative viability ([2]; first compound 0.253 µM)	relative viability ([2]; first compound 0.8 µM)	relative viability ([2]; first compound 2.53 µM)	relative viability ([2]; first compound 8 µM)	relative viability ([3]; first compound 0.08 µM)	relative viability ([3]; first compound 0.253 µM)	relative viability ([3]; first compound 0.8 µM)	relative viability ([3]; first compound 2.53 µM)	relative viability ([3]; first compound 8 µM)	relative viability ([4]; first compound 0.08 µM)	relative viability ([4]; first compound 0.253 µM)	relative viability ([4]; first compound 0.8 µM)	relative viability ([4]; first compound 8 µM)	relative viability ([4]; first compound 2.53 µM)
HCC-44	1.07	0.978	1.03	1.06	0.93	1.08	0.84	–	0.783	0.852	0.902	0.941	0.914	0.93	1	0.985	1.03	1.07	0.825	1.05
HCC-78	0.803	0.792	0.805	0.59	0.813	0.402	0.481	0.491	0.486	0.414	0.666	–	0.694	0.652	0.562	0.721	0.347	1	0.712	0.717
HCC-366	0.511	0.328	0.423	0.312	0.292	0.226	0.0945	0.123	0.0834	0.0885	0.359	0.347	0.324	0.383	0.308	1.04	0.938	1.26	1.15	–
HCC-827	0.617	0.694	0.631	0.683	0.648	0.385	0.372	0.369	0.457	0.406	0.376	0.28	0.319	0.334	0.328	0.198	0.215	0.197	0.207	0.19
IA-LM	0.748	0.863	0.958	0.979	0.903	–	–	–	–	–	–	–	–	–	–	–	1.08	0.832	0.664	0.997
LCLC-103H	0.794	0.831	0.779	0.77	0.737	0.42	0.529	0.572	0.557	0.411	0.773	0.747	0.664	0.741	0.66	–	–	–	–	–
NCI-H441	0.61	0.591	0.511	0.543	0.539	0.679	0.521	0.712	0.619	0.688	0.235	0.255	0.234	0.232	0.25	–	–	–	–	–
NCI-H522	0.724	0.715	0.525	0.665	0.668	0.493	0.625	0.545	0.539	0.437	0.706	0.514	–	0.65	0.74	–	–	–	–	–
NCI-H1299	0.982	1.03	0.958	0.923	0.959	–	–	–	–	–	–	–	–	–	–	0.962	0.982	0.975	0.934	1.02
NCI-H1563	–	–	–	–	–	–	–	–	–	–	–	–	–	–	–	0.935	0.914	1.25	0.73	0.793
NCI-H1623	–	–	–	–	–	0.434	0.422	0.404	0.45	0.436	–	–	–	–	–	–	–	–	–	–
NCI-H1648	1.16	1.17	0.813	0.656	0.577	0.536	0.527	0.515	0.47	0.542	0.549	0.484	–	0.416	0.635	–	–	–	–	–
NCI-H1703	0.387	0.39	0.447	0.355	0.487	–	–	–	–	–	–	–	–	–	–	1.21	1.2	1.03	0.96	1.39
NCI-H1792	0.659	0.481	0.365	0.384	0.215	–	–	–	–	–	0.508	0.485	–	0.525	0.484	0.923	0.999	0.988	0.514	0.956
NCI-H2228	0.738	0.575	0.596	0.869	0.504	0.276	0.262	0.226	0.288	0.225	–	–	–	–	–	0.974	0.885	1.19	0.734	0.833
NCI-H2342	0.49	0.432	0.463	0.425	0.418	0.493	0.43	0.442	0.464	0.421	0.841	0.793	0.662	0.772	0.608	–	–	–	–	–
SW 900	0.859	–	1.19	1.11	0.976	0.575	0.675	0.527	0.417	0.531	–	0.47	–	0.465	0.349	–	–	–	–	–
